The values that follow come from patent publication US9556201B2, “Bicyclic pyridines and analogs as sirtuin modulators” (GLAXOSMITHKLINE LLC, priority 2009, dated 2017).

For experiment [1], the target named is T1, SIRT1 (Homo sapiens, UniProt Q96EB6).
T1 sequence (Q96EB6 1-747): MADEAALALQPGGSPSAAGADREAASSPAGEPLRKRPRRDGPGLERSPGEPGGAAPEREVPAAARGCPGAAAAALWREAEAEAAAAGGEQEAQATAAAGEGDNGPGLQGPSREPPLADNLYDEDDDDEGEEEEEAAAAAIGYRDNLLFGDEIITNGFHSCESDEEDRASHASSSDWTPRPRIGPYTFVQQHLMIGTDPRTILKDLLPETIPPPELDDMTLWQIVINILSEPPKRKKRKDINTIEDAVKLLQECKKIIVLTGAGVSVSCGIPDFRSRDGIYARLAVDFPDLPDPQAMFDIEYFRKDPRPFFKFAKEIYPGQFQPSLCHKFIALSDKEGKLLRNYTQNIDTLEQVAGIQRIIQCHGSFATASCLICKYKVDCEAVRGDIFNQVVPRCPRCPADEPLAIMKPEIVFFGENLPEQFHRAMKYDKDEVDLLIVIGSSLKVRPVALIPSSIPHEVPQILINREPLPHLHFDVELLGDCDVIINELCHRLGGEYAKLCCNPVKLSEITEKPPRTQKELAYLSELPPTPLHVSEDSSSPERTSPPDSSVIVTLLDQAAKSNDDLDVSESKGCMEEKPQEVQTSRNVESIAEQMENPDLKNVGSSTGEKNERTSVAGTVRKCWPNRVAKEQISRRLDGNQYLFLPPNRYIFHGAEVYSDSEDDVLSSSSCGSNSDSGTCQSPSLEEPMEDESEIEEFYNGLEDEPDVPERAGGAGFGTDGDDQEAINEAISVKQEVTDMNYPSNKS
The experiment in a line: Mass spectrometry based assay to identify modulators of SIRT1 activity (deacetylation of p53-based acetylated peptide substrate). The settings on record: for Emax: 25 min, read-out: % FOLD ACT. (percent maximum fold activation); for Emax / EC1.5: SIRT1 activation. It is filed as biochemical. In a few lines: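 Deacetylation of a modified p53 acetyl-lysine peptide ([…], 5TMR-labelled, Nle for Met) by 10 nM N-His SIRT1 with 120 μM βNAD+, pH 8, 25 min, 25 °C. Substrate and product masses measured by MS after formic acid quench; nicotinamide defines maximal inhibition.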

For experiment [2], the system named is TNF. The experiment in a line: TNF IC50 (column of Table 1; method not shown). The class given is cell-based.
For experiment [3], the system named is TNF. The experiment in a line: TNF IC50 (column of Table 1; method not in the text shown). It is filed as cell-based.

SMILES strings stand for the structures.

What is called IC50 is the concentration that gives 50% inhibition. As for `Cc1cc(C)nc(NC(=O)N2CCOc3c(C)cc(-c4cccc(C(F)(F)F)c4)nc32)c1` [Compound 672], in experiment [1], the Emax is at most 200% and the EC1.5 result is given as “A (EC1.5<1.0 μM)”. Moreover, the IC50 in experiment [2] is at least 20 µM.
The corresponding values for `Cc1csc(NC(=O)N2CC(C)(C)Oc3ccc(-c4cccc(N5CCOCC5)c4)nc32)n1` [Compound 675] are above 200%, “A (EC1.5<1.0 μM)” and below 20 µM.
In the same order, the values of `O=C(Nc1cccc(OC[C@H](O)CO)n1)N1CCCc2ccc(-c3cccc(C(F)(F)F)c3)nc21` [Compound 678] are above 200%, “A (EC1.5<1.0 μM)” and at least 20 µM.
Regarding `Cc1cc(-c2cccc(C(F)(F)F)c2)nc2c1OCCN2C(=O)Nc1cccc(OCC(O)CO)n1` (stereo not drawn) [Compound 682], in experiment [1], the Emax is above 200% and the EC1.5 entry is “A (EC1.5<1.0 μM)”. In experiment [2], this compound gave an IC50 below 20 µM.
The corresponding values for `Cc1cc(-c2cccc(C(F)(F)F)c2)nc2c1OCCN2C(=O)Nc1ccnc(N2CCC2)c1` [Compound 683] are above 200%, “A (EC1.5<1.0 μM)” and at least 20 µM.
The corresponding values for `Cc1csc(NC(=O)N2CCOc3c(C)cc(-c4cccc(Cl)c4)nc32)n1` [Compound 684] are above 200%, “A (EC1.5<1.0 μM)” and at least 20 µM.
The corresponding values for `Cc1cncc(NC(=O)N2CCOc3c(C)cc(-c4cccc(Cl)c4)nc32)c1` [Compound 688] are above 200%, “A (EC1.5<1.0 μM)” and at least 20 µM.
In the case of `Cc1cc(NC(=O)N2CCOc3c(C)cc(-c4cccc(Cl)c4)nc32)cc(C)n1` [Compound 689], in experiment [1], the Emax was above 200% and the EC1.5 entry is reported as “A (EC1.5<1.0 μM)”. In experiment [2], this compound showed an IC50 of at least 20 µM.
In the same order, the values of `Cc1cc(C)nc(NC(=O)N2CCOc3c(C)cc(-c4cccc(Cl)c4)nc32)c1` [Compound 690] are above 200%, “A (EC1.5<1.0 μM)” and at least 20 µM.
On to `Cc1cc(-c2cccc(Cl)c2)nc2c1OCCN2C(=O)Nc1cccc(OCC(O)CO)n1` (stereo not drawn) [Compound 691], for which, in experiment [1], the Emax is above 200% and the EC1.5 result is listed as “A (EC1.5<1.0 μM)”. The IC50 in experiment [2] was below 20 µM.
In the same order, the values of `Cc1cc(-c2cccc(Cl)c2)nc2c1OCCN2C(=O)Nc1ccnc(N2CCC2)c1` [Compound 692] are above 200%, “A (EC1.5<1.0 μM)” and at least 20 µM.
The corresponding values for `O=C(Nc1cccc(OC[C@H](O)CO)n1)N1CCOc2ccc(-c3ccc4c(c3)CCO4)nc21` [Compound 695] are above 200%, “A (EC1.5<1.0 μM)” and below 20 µM.
In the same order, the values of `O=C(Nc1cncc(OCC(O)CO)n1)N1CCOc2ccc(-c3cccc(C(F)(F)F)c3)nc21` (stereo not drawn) [Compound 696, N-(6-(2,3-dihydroxypropoxy)pyrazin-2-yl)-6-(3-(trifluoromethyl)phenyl)-2H-pyrido[3,2-b][1,4]oxazine-4(3H)-carboxamide] are above 200%, “A (EC1.5<1.0 μM)” and below 20 µM.
Take `O=C(Nc1ccnc(OCC(O)CO)n1)N1CCOc2ccc(-c3cccc(C(F)(F)F)c3)nc21` (stereo not drawn) [Compound 697]: in experiment [1], the EC1.5 (concentration giving 1.5-fold activation) is below 1000 nM and the Emax is above 200%. Also, the IC50 in experiment [3] is at least 20 µM.
With `CN(C)c1cccc(-c2ccc3c(n2)N(C(=O)Nc2cccc(OC[C@H](O)CO)n2)CCC3)c1` [Compound 699], in experiment [1], the EC1.5 (concentration giving 1.5-fold activation) is below 1000 nM and the Emax was above 200%. Moreover, in experiment [3], the IC50 was below 20 µM.
In the same order, the values of `N#Cc1cccc(-c2ccc3c(n2)N(C(=O)Nc2cccc(OC[C@H](O)CO)n2)CCC3)c1` [Compound 700] are below 1000 nM, above 200% and below 20 µM.
As for `Cc1cncc(NC(=O)N2CC(C)(C)Oc3ccc(-c4cccc(N5CC[C@@H](F)C5)c4)nc32)c1` [Compound 701, (R)-6-(3-(3-fluoropyrrolidin-1-yl)phenyl)-2,2-dimethyl-N-(5-methylpyridin-3-yl)-2H-pyrido[3,2-b][1,4]oxazine-4(3H)-carboxamide], in experiment [1], the EC1.5 (concentration giving 1.5-fold activation) was below 1000 nM and the Emax is above 200%. In experiment [3], this compound had an IC50 below 20 µM.
For the compound `Cc1csc(NC(=O)N2CC(C)(C)Oc3ccc(-c4cccc(N5CC[C@@H](F)C5)c4)nc32)n1` [Compound 707], in experiment [1], the EC1.5 (concentration giving 1.5-fold activation) is below 1000 nM and the Emax was above 200%. The IC50 in experiment [3] was at least 20 µM.
The corresponding values for `Cc1cncc(NC(=O)N2CCOc3cnc(-c4cccc(C(F)(F)F)c4)nc32)c1` [Compound 710] are below 1000 nM, above 200% and at least 20 µM.
In the same order, the values of `Cc1cc(NC(=O)N2CCOc3cnc(-c4cccc(C(F)(F)F)c4)nc32)cc(C)n1` [Compound 711] are below 1000 nM, above 200% and at least 20 µM.
Turning to `O=C(Nc1ccnc(N2CCC2)c1)N1CCOc2cnc(-c3cccc(C(F)(F)F)c3)nc21` [Compound 713], in experiment [1], the EC1.5 (concentration giving 1.5-fold activation) was below 1000 nM and the Emax is above 200%. The IC50 in experiment [3] was at least 20 µM.
Turning to `O=C(Nc1cccc(OCC(O)CO)n1)N1CCOc2cnc(-c3cccc(C(F)(F)F)c3)nc21` (stereo not drawn) [Compound 717], in experiment [1], the EC1.5 (concentration giving 1.5-fold activation) was below 1000 nM and the Emax was at most 200%. The compound further came in with an IC50 in experiment [3] of at least 20 µM.
With `O=C(Nc1cccc(OC[C@@H](O)CO)n1)N1CCC(F)(F)c2ccc(-c3cccc(C(F)(F)F)c3)nc21` [Compound 745], in experiment [1], the EC1.5 (concentration giving 1.5-fold activation) was below 1000 nM and the Emax was above 200%. Also, in experiment [3], the IC50 was below 20 µM.
In the same order, the values of `Cc1cc(NC(=O)N2CCCC(=O)c3ccc(-c4cccc(Cl)c4)nc32)ccn1` [Compound 750] are below 1000 nM, above 200% and at least 20 µM.
The corresponding values for `CC1CCN(C(=O)Nc2ccncc2)c2nc(-c3cccc(C(F)(F)F)c3)ccc21` (stereo not drawn) [Compound 786, 4-methyl-N-(pyridin-4-yl)-7-(3-(trifluoromethyl)phenyl)-3,4-dihydro-1,8-naphthyridine-1(2H)-carboxamide] are below 1000 nM, above 200% and below 20 µM.
Consider `Cc1csc(NC(=O)N2CCC(C)c3ccc(-c4cccc(C(F)(F)F)c4)nc32)n1` (stereo not drawn) [Compound 787], for which, in experiment [1], the EC1.5 (concentration giving 1.5-fold activation) was below 1000 nM and the Emax is above 200%. This compound yielded an IC50 in experiment [3] of at least 20 µM.
The corresponding values for `CCN1CCCN(C(=O)Nc2cc(C)nc(C)c2)c2nc(-c3cccc(Cl)c3)ccc21` [Compound 793] are below 1000 nM, above 200% and below 20 µM.
In the same order, the values of `CCN1CCCN(C(=O)Nc2nc(C)cs2)c2nc(-c3cccc(Cl)c3)ccc21` [Compound 794] are below 1000 nM, above 200% and below 20 µM.
The corresponding values for `CCN1CCCN(C(=O)Nc2ccnc(C)c2)c2nc(-c3cccc(Cl)c3)ccc21` [Compound 795] are below 1000 nM, above 200% and below 20 µM.
Take `CC1CCN(C(=O)Nc2ccc(F)cn2)c2nc(-c3cccc(C(F)(F)F)c3)ccc21` (stereo not drawn) [Compound 800]: in experiment [1], the EC1.5 (concentration giving 1.5-fold activation) is below 1000 nM and the Emax was at most 200%. The compound further registered an IC50 in experiment [3] below 20 µM.
In the same order, the values of `CC1CCN(C(=O)Nc2cccc(OC[C@@H](O)CO)n2)c2nc(-c3cccc(C(F)(F)F)c3)ccc21` (stereo partly drawn) [Compound 801] are below 1000 nM, above 200% and below 20 µM.
On to `CC1CCN(C(=O)Nc2ccncc2F)c2nc(-c3cccc(C(F)(F)F)c3)ccc21` (stereo not drawn) [Compound 804], for which, in experiment [1], the EC1.5 (concentration giving 1.5-fold activation) is below 1000 nM and the Emax was above 200%. In experiment [3], this compound yielded an IC50 below 20 µM.
The corresponding values for `CC1CCN(C(=O)Nc2ccncn2)c2nc(-c3cccc(C(F)(F)F)c3)ccc21` (stereo not drawn) [Compound 805] are below 1000 nM, above 200% and below 20 µM.
On to `O=C(Nc1cncc(OCC(O)CO)n1)N1CCC(F)(F)c2ccc(-c3cccc(C(F)(F)F)c3)nc21` (stereo not drawn) [Compound 813], for which, in experiment [1], the EC1.5 (concentration giving 1.5-fold activation) is below 1000 nM and the Emax is above 200%. For the same compound, the IC50 in experiment [3] was below 20 µM.
